Biological target: Glycogen synthase kinase-3 beta (Homo sapiens, UniProt P49841)
Assay: GSK3beta kinase inhibitor potency, dose response, biochemical, luminescence, cell-free homogeneous, retest (AID 434954)

Chain of Glycogen synthase kinase-3 beta (P49841 whole entry): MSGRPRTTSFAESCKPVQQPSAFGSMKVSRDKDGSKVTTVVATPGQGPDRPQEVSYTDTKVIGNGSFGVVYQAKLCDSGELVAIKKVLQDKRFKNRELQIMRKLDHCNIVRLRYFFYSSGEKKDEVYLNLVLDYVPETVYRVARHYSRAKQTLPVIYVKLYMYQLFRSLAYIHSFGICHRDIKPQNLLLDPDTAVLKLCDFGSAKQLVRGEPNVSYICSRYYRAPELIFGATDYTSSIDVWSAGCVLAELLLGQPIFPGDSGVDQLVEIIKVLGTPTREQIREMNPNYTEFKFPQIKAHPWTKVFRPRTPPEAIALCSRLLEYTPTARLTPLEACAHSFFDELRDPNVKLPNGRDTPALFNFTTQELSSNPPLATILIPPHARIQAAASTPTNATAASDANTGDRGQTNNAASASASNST

Row | EC50 | Structure (SMILES)
1 | > 300 µM | Nc1ncnc(N(c2ccccc2)C2CCCCC2)c1[N+](=O)[O-] [N-cyclohexyl-5-nitro-N-phenyl-4,6-pyrimidinediamine]
2 | > 300 µM | Cc1ccc(N(c2ncnc(N)c2[N+](=O)[O-])C2CCCCC2)cc1 [N-cyclohexyl-N-(4-methylphenyl)-5-nitro-4,6-pyrimidinediamine]
3 | 59.6 µM | CCN(Cc1ccccc1)S(=O)(=O)c1ccc2c(c1)NC(=O)CC(=O)N2 [N-ethyl-2,4-dioxo-N-(phenylmethyl)-1,5-dihydro-1,5-benzodiazepine-7-sulfonamide]
4 | > 300 µM | C[O+]=N[CH-]c1ccc(N2CCOCC2)c([N+](=O)[O-])c1 [N-methoxy-1-(4-morpholin-4-yl-3-nitro-phenyl)methanimine]
5 | > 300 µM | CNC(=O)c1ccccc1NC(=O)c1cccc(S(=O)(=O)N2CCC(C)CC2)c1 [N-methyl-2-({3-[(4-methylpiperidin-1-yl)sulfonyl]benzoyl}amino)benzamide]
6 | > 300 µM | CNCCCOc1cc(C)cc(C)c1C [N-methyl-3-(2,3,5-trimethylphenoxy)propan-1-amine;oxalic acid]
7 | > 300 µM | c1ccc2c(Nc3nc(-c4ccncc4)nc4ccccc34)cccc2c1 [N-naphthalen-1-yl-2-pyridin-4-ylquinazolin-4-amine]
8 | > 300 µM | CC(C)(C)NC1=NN=C(c2ccc(Cl)cc2)CS1 [N-tert-butyl-5-(4-chlorophenyl)-6H-1,3,4-thiadiazin-2-amine]
9 | > 300 µM | COc1ccc(C(=O)c2sc(Nc3ccc(NC(C)=O)cc3)nc2C)cc1 [N-{4-[5-(4-Methoxy-benzoyl)-4-methyl-thiazol-2-ylamino]-phenyl}-acetamide]
10 | > 300 µM | N#Cc1c(O)nc(SCC(=O)Nc2ccc(OC(F)(F)Cl)cc2)nc1-c1ccccc1 [N-{4-[chloro(difluoro)methoxy]phenyl}-2-[(5-cyano-6-oxo-4-phenyl-1,6-dihydropyrimidin-2-yl)thio]acetamide]
11 | > 300 µM | O=C(NN=Cc1ccccn1)c1cccnc1 [Nicotinic acid [1-pyridin-2-yl-meth-(E)-ylidene]-hydrazide]
12 | > 300 µM | O=c1c(-c2ccc(O)cc2)coc2cc(O)cc(O)c12 [Prunetol]
13 | 15.8 µM | O=c1cc(O)cc2oc(-c3ccc(O)c(O)c3)c(O[C@@H]3O[C@H](CO)[C@@H](O)[C@H](O)[C@H]3O)c(O)c1-2 [Quercetin 3-O-beta-D-glucoside]
14 | > 300 µM | Fc1ccc(CSc2nnc(-c3cccs3)o2)cc1 [SMR000003242]
15 | > 300 µM | COc1ccccc1N1CCN(C(=O)Cn2nnc(-c3ccncc3)n2)CC1 [SMR000003468]
16 | > 300 µM | COCCN(CC(=O)NCc1ccccc1)C(=O)CCC(=O)Nc1ccccn1 [SMR000004552]
17 | > 300 µM | O=C(CSc1nnc(-c2ccncc2)o1)Oc1ccccc1 [SMR000006341]
18 | 1.71 µM | c1cc(CSc2nnc(-c3ccc4c(c3)OCO4)o2)ccn1 [SMR000006350]
19 | > 300 µM | N#Cc1cccc(-c2nnc(SCc3ccccc3C#N)o2)c1 [SMR000006352]
20 | 20.3 µM | c1ccc(OCCCn2nnc(-c3ccncc3)n2)cc1 [SMR000008082]
21 | > 300 µM | COc1ccc(NC(=O)c2sc(SC)nc2N)cc1 [SMR000011170]
22 | > 300 µM | COc1ccc2nc(NC(=O)CSC3=NCCS3)sc2c1 [SMR000012424]
23 | > 300 µM | COc1cccc(C(=O)Nc2nnc(C(C)C)s2)c1 [SMR000013475]
24 | > 300 µM | COc1ccc(-c2nn(-c3ccccc3)cc2C(=O)O)cc1 [SMR000015534]
25 | > 300 µM | CC(C)C(=O)NC(C)C(c1cccs1)N1CCN(c2ccccc2)CC1 (centres undefined) [SMR000016589]
26 | > 300 µM | CC(=O)C(Sc1ccc2nnc(-c3ccc(F)cc3)n2n1)C(C)=O [SMR000016797]
27 | > 300 µM | CC(C)CCn1c(CN2CCN(c3cccc(Cl)c3)CC2)nc2c1c(=O)n(C)c(=O)n2C [SMR000017148]
28 | > 300 µM | NC(=O)c1c(NC(=O)CN2C(=O)CCC2=O)sc2c1CCCCC2 [SMR000018552]

Row | Structure (SMILES) | EC50
29 | O=c1cc(-c2ccc(O)cc2)oc2cc(O)cc(O)c12 [Naringenin, 18] | 49.5 µM
